This is an account of results in patent publication US5567693A, “Method for inhibiting angiogenesis, proliferation of endothelial or tumor cells and tumor growth” (American Cyanamid Company, priority 1994, dated 1996).

Assay [1] deals with Adult Bovine Aortic Endothelial (ABAE) cell line. Nature of the assay: Antiproliferative activity in ABAE cell line, PROTOCOL 1. It is filed as cell-based. The following applies: Bos taurus, PROTOCOL 1, 48 hours. Here is the method: The antiproliferative activity of the compounds of Formula I in an Adult Bovine Aortic Endothelial (ABAE) cell line and in Human Tumor cell lines is evaluated in three similar assays that measure growth inhibition. The assays are identified as follows: PROTOCOL 1,2,and 3 are described in greater detail hereinbelow. In general, according to PROTOCOLS 1 and 2, the target ABAE and/or Human Tumor cells are exposed to the compounds of Formula I for 48 hours. PROTOCOL 3 exposes ABAE cells to the compounds for 4 days. A detailed description of the protocols is as follows: PROTOCOL 1 Antiproliferative Activity in Human Tumor and Adult Bovine Aortic Endothelial Cell Lines (ABAE) The antiproliferative activity of the compounds of Formula I of the present invention is evaluated in a panel comprised of human tumor cell lines and an adult bovine aortic endothelial cell line (ABAE). The human tumor cell lines are from All cell lines are maintained in log phase in RPMI 1640 media, supplemented with 5% fetal calf serum, penicillin/streptomycin and 2 mM L-glutamine. Cultures are renewed after 20 passages with cells from a fresh stock of batch-frozen early passage cells. Cell lines are routinely checked for mycoplasma contamination (Genprobe). In a laminar flow hood, cells (1-5×10^4) are plated into 96-well microtiter plates in a volume of 0.1 ml/well with a bulk microtiter dispenser (Denley). […] At this concentration, dimethylsulfoxide has no effect on cell growth. Compounds are added using a Tomtec dispenser which simultaneously dispenses from one 96-well plate, containing the drug dilutions, to the plates containing the cells. After two days of continuous drug exposure, 50% cold trichloroacetic acid (TCA) is added to 10% final concentration to fix the cells, and after 60 minutes at 4° C., the TCA is aspirated and the plates are washed 5 times with deionized water using a microtiter plate washer. The number of cells on the plate are quantitated using a protein dye-binding assay (Monks et al., 1991). A 0.4% solution of the dye, sulforhodamine B, in […] is added to the plates, and the plates are washed 5 times with 1% […] using the automatic plate washed. The bound stain is solubilized with 0.1 ml of 10 mM Tris base. The optical densities are read from an automatic spectrophotometric plate reader (Dynatech) directly to a main frame computer (VAX 8600). Positive controls, that include standard chemotherapeutic drugs (i.e., Adriamycin, Cisplatin, etc.), are included in every experiment. Background optical density measurements (complete media-cells, and complete media+drug-cells) are automatically subtracted from the appropriate control and test wells. Mean values and standard errors are determined from duplicate wells. A measure is also made of the optical density at time when the drugs are added. The number of cells after treatment (P), as % of control, is calculated for every concentration of drug, as follows: [formula] wherein: T is optical density measurement for treated cells after 48 hours; C is optical density measurement for untreated cells after 48 hours; Co is optical density measurement for cells at the time of drug addition. IC50 of growth inhibition is calculated from the sets of P values using the RS-1 data package (BBN Software). Table 1 presents the results depicting the antiproliferative activity of the compounds of Formula I against an Adult Bovine Aortic Endothelial cell line (ABAE), as evaluated by PROTOCOL 1 and 2. The results are presented in terms of IC50 and are as follows.

Assay [2] relates to HTB 161. Kind of assay: Antiproliferative activity in human tumor cell lines: HTB 161 (ovarian). It is filed as cell-based. The following applies: HTB 161 ovarian tumor, PROTOCOL 1 and PROTOCOL 2, 48 hours. As to the method:
The assays are identified as follows:
PROTOCOL 1,2,and 3 are described in greater detail hereinbelow. In general, according to PROTOCOLS 1 and 2, the target ABAE and/or Human Tumor cells are exposed to the compounds of Formula I for 48 hours. PROTOCOL 3 exposes ABAE cells to the compounds for 4 days. A detailed description of the protocols is as follows:
The antiproliferative activity of the compounds of Formula I of the present invention is evaluated in a panel comprised of human tumor cell lines and an adult bovine aortic endothelial cell line (ABAE). The human tumor cell lines are from
Cultures are renewed after 20 passages with cells from a fresh stock of batch-frozen early passage cells. Cell lines are routinely checked for mycoplasma contamination (Genprobe). In a laminar flow hood, cells (1-5×10^4) are plated into 96-well microtiter plates in a volume of 0.1 ml/well with a bulk microtiter dispenser (Denley). […] Compounds are added using a Tomtec dispenser which simultaneously dispenses from one 96-well plate, containing the drug dilutions, to the plates containing the cells. After two days of continuous drug exposure, 50% cold trichloroacetic acid (TCA) is added to 10% final concentration to fix the cells, and after 60 minutes at 4° C., the TCA is aspirated and the plates are washed 5 times with deionized water using a microtiter plate washer. […] A 0.4% solution of the dye, sulforhodamine B, in […] is added to the plates, and the plates are washed 5 times with 1% glacial acetic acid using the automatic plate washed. The bound stain is solubilized with 0.1 ml of 10 mM Tris base. The optical densities are read from an automatic spectrophotometric plate reader (Dynatech) directly to a main frame computer (VAX 8600).
Positive controls, that include standard chemotherapeutic drugs (i.e., Adriamycin, Cisplatin, etc.), are included in every experiment.
Background optical density measurements (complete media-cells, and complete media+drug-cells) are automatically subtracted from the appropriate control and test wells. Mean values and standard errors are determined from duplicate wells. A measure is also made of the optical density at time when the drugs are added. The number of cells after treatment (P), as % of control, is calculated for every concentration of drug, as follows: [formula] wherein: T is optical density measurement for treated cells after 48 hours;
C is optical density measurement for untreated cells after 48 hours;
Co is optical density measurement for cells at the time of drug addition.
IC50 of growth inhibition is calculated from the sets of P values using the RS-1 data package (BBN Software).
The antiproliferative activity of the compounds of Formula I is evaluated in a panel comprised of human tumor cell lines and an adult bovine aortic cell line (ABAE) as listed in PROTOCOL 1. This assay is a modification of PROTOCOL 1. The modifications include:
1) each concentration for each compound is tested in a single well;
2) compounds are tested at 20, 4, 0.8, 0.16 microgram/ml and additionally in some experiments at 100 and 0.32 microgram/ml;
3) samples are pipetted into a 96-well plate for each of the cell lines by a Beckman Biomek 1000 SL robot;
4) after fixing with TCA each well is washed with 0.35 ml distilled water twice, not five times;
5) after staining with sulforhodamine B each well is washed 3 times, not five times;
6) the growth inhibition (I) as % of control, is calculated using the RS-1 data package (BBN Software), for every concentration of drug, as follows: [formula] wherein: T is optical density measurement for treated cells after 48 hours;
7) IC50 of growth inhibition is determined graphically from dose response curves, as is known in the art.

Molecules are shown by their SMILES. Counter-ions that a name gives are not always drawn.

As for `CN(C)CC(=O)Nc1c(Cl)cc2c(c1O)C(=O)C1=C(O)[C@]3(O)C(=O)C(C(N)=O)=C(O)[C@@H](N(C)C)C3CC1C2` (stereo partly drawn) [Example 3, [4S-(45, 12aα)]-8-Chloro-4-(dimethylamino)-9[[(dimethylamino)acetyl]amino]-1,4,4a,5,5a,6,11,12a-octahydro-3,10,12,12a-tetrahydroxy-1,11-dioxo-2-naphthacenecarboxamide disulfate], the values for the 50% inhibitory concentration (IC50) in assay [1] and in assay [2] were 2.2 µg/mL and 1 µg/mL, respectively.

`CCCCNCC(=O)Nc1c(Cl)cc2c(c1O)C(=O)C1=C(O)[C@]3(O)C(=O)C(C(N)=O)=C(O)[C@@H](N(C)C)C3CC1C2` (stereo partly drawn) [Example 4, [4S-(4α, 12aα)]-9-[[(Butylamino)acetyl]amino]-8-chloro-4-(dimethylamino) -1,4,4a,5,5a,6,11,12a-octahydro-3,10,12,12a-tetrahydroxy-1,11-dioxo-2-naphthacenecarboxamide dihydrochloride]: the half-maximal inhibitory concentration (IC50) was determined as 2.3 µg/mL in assay [1] and 1.2 µg/mL in assay [2].

In the case of `CCCNCC(=O)Nc1c(Cl)cc2c(c1O)C(=O)C1=C(O)[C@]3(O)C(=O)C(C(N)=O)=C(O)[C@@H](N(C)C)C3CC1C2` (stereo partly drawn) [Example 5, [4S-(4α, 12aα)]-8-Chloro-4-(dimethylamino)-1,4,4a,5,5a, 6,11,12a-octahydro-3,10,12,12a-tetrahydroxy-1,11-dioxo-9-[[(propylamino)acetyl]amino]-2-naphthacenecarboxamide dihydrochloride], the IC50 in assay [1] was found to be 2 µg/mL; in assay [2], 4 µg/mL.

For the molecule `CCCCCNCC(=O)Nc1c(Cl)cc2c(c1O)C(=O)C1=C(O)[C@]3(O)C(=O)C(C(N)=O)=C(O)[C@@H](N(C)C)C3CC1C2` (stereo partly drawn) [Example 6, [4S-(4α, 12aα)]-8-Chloro-4-(dimethylamino)-1,4,4a,5,5a,6,11,12a-octahydro-3,10,12,12a-tetrahydroxy-1,11-dioxo-9-[[(pentylamino)acetyl]amino]-2-naphthacenecarboxamide dihydrochloride], the half-maximal inhibitory concentration (IC50) is 0.6 µg/mL in assay [1] and 0.5 µg/mL in assay [2].

Take `CNCC(=O)Nc1c(Cl)cc2c(c1O)C(=O)C1=C(O)[C@]3(O)C(=O)C(C(N)=O)=C(O)[C@@H](N(C)C)C3CC1C2` (stereo partly drawn) [Example 7, [4S-(4α, 12aα)]-8-Chloro-4-(dimethylamino)-1,4,4a,5,5a,6,11,12a-octahydro-3,10,12,12a-tetrahydroxy-1,11-dioxo-9-[[(methylamino)acetyl]amino]-2-naphthacenecarboxamide dihydrochloride]: the IC50 in assay [1] came out at 3.3 µg/mL; in assay [2], 1.3 µg/mL.

On to `CN(C)[C@@H]1C(O)=C(C(N)=O)C(=O)[C@@]2(O)C(O)=C3C(=O)c4c(cc(Cl)c(NC(=O)CNCC5CC5)c4O)CC3CC12` (stereo partly drawn) [Example 8, [4S-(4α,12aα)]-8-Chloro-9-[[(cyclopropylmethylamino)-acetyl]amino]4-(dimethylamino)-1,4,4a,5,5a,6,11,12a-octahydro-3,10,12,12a-tetrahydroxy-1,11-dioxo-2-naphthacenecarboxamide dihydrochloride], for which the IC50 in assay [1] was 2 µg/mL; in assay [2], 1 µg/mL.

For `CN(C)[C@@H]1C(O)=C(C(N)=O)C(=O)[C@@]2(O)C(O)=C3C(=O)c4c(cc(Cl)c(NC(=O)CN5CCCC5)c4O)CC3CC12` (stereo partly drawn) [Example 9, [7S-(7α,10aα)]-N-[9-(Aminocarbonyl)-3-chloro-7-(dimethylamino)-5,5a,6,6a,7,10,10a,12-octahydro-1,8,10a,11-tetrahydroxy-10,12-dioxo-2-naphthacenyl]-1-pyrrolidineacetamide dihydrochloride], the half-inhibitory concentration (IC50) in assay [1] is 2.5 µg/mL; in assay [2] it was 1.9 µg/mL.

On to `CN(C)[C@@H]1C(O)=C(C(N)=O)C(=O)[C@@]2(O)C(O)=C3C(=O)c4c(cc(Cl)c(NC(=O)CN5CCCCC5)c4O)CC3CC12` (stereo partly drawn) [Example 10, 7S-(7α,10aα)]-N-[9-(Aminocarbonyl)-3-chloro-7-(dimethylamino)-5,5a,6,6a,7,10,10a,12-octahydro-1,8,10a,11-tetrahydroxy-10,12-dioxo-2-naphthacenyl]-1-piperidineacetamide dihydrochloride], for which the IC50 in assay [1] turned out to be 0.7 µg/mL; in assay [2], 0.6 µg/mL.

Take `CN(C)c1c(Cl)cc(O)c2c1CC1CC3[C@H](N(C)C)C(O)=C(C(N)=O)C(=O)[C@@]3(O)C(O)=C1C2=O` (stereo partly drawn) [Example 11, [4S-(4α,12aα)]-8-Chloro-4,7-bis(dimethylamino)-1,4,4a,5,5a,6,11,12a-octahydro-3,10,12,12a-tetrahydroxy-1,11-dioxo-2-naphthacenecarboxamide sulfate]: the IC50 in assay [1] was 3 µg/mL; in assay [2], 0.7 µg/mL.
